According to patent publication US4379917A, “6"-(Substituted)-apramycin antibiotic derivatives and intermediates and starting materials therefor” (Eli Lilly and Company, priority 1981, dated 1983):
Values after ≈ are worked out from the molar mass of the structure shown. Like-named read-outs stand apart in the source and are kept apart here.

Experiments:
[1] = test system: Pseudomonas aeruginosa X48; assay: MIC by standard agar dilution test; assay type: cell-based; conditions: X48, read-out: Minimum Inhibitory Concentration
[2] = test system: Pseudomonas aeruginosa X528; assay: MIC by standard agar dilution test; assay type: cell-based; conditions: X528, read-out: Minimum Inhibitory Concentration
[3] = test system: Pseudomonas aeruginosa X239; assay: MIC by standard agar dilution test; assay type: cell-based; conditions: X239, read-out: Minimum Inhibitory Concentration, Table 1
[4] = test system: Pseudomonas aeruginosa Ps9; assay: MIC by standard agar dilution test; assay type: cell-based; conditions: PS9, read-out: Minimum Inhibitory Concentration
[5] = test system: Pseudomonas aeruginosa Ps15; assay: MIC by standard agar dilution test; assay type: cell-based; conditions: PS15, read-out: Minimum Inhibitory Concentration
[6] = test system: Pseudomonas aeruginosa Ps25; assay: MIC by standard agar dilution test; assay type: cell-based; conditions: PS25, read-out: Minimum Inhibitory Concentration
[7] = test system: Pseudomonas aeruginosa 4276; assay: MIC by standard agar dilution test; assay type: cell-based; conditions: Pseudomonas aeruginosa, 4276, read-out: Minimum Inhibitory Concentration
[8] = test system: Pseudomonas aeruginosa PI23; assay: MIC by standard agar dilution test; assay type: cell-based; conditions: PI23, read-out: Minimum Inhibitory Concentration
[9] = test system: Pseudomonas aeruginosa SF-2; assay: MIC by standard agar dilution test; assay type: cell-based; conditions: SF2, read-out: Minimum Inhibitory Concentration
Serratia marcescens SE2 = assay: MIC by standard agar dilution test; assay type: cell-based; conditions: SE2, Table 1, agar dilution, read-out: Minimum Inhibitory Concentration
Serratia marcescens X99 = assay: MIC by standard agar dilution test; assay type: cell-based; conditions: X99, Table 1, agar dilution, read-out: Minimum Inhibitory Concentration
Serratia marcescens SE3 = assay: MIC by standard agar dilution test; assay type: cell-based
[10] = test system: Enterobacter aerogenes EB6; assay: MIC by standard agar dilution test; assay type: cell-based; conditions: Klebsiella aerogenes, EB6, read-out: Minimum Inhibitory Concentration
[11] = test system: Enterobacter cloacae EN453; assay: MIC by standard agar dilution test; assay type: cell-based; conditions: EN453, Table 1, agar dilution, read-out: Minimum Inhibitory Concentration
[12] = test system: Enterobacter cloacae EB24; assay: MIC by standard agar dilution test; assay type: cell-based; conditions: EB24, Table 1, agar dilution, read-out: Minimum Inhibitory Concentration
Proteus morganii PR1 = assay: MIC by standard agar dilution test; assay type: cell-based; conditions: Morganella morganii, PR1, read-out: Minimum Inhibitory Concentration
Proteus morganii PR2 = assay: MIC by standard agar dilution test; assay type: cell-based; conditions: Morganella morganii, PR2; Table 1; agar dilution; read-out: Minimum Inhibitory Concentration
Proteus inconstans PV25 = assay: MIC by standard agar dilution test; assay type: cell-based; conditions: Providencia alcalifaciens, PV25; Table 1; agar dilution; read-out: Minimum Inhibitory Concentration
[13] = test system: Klebsiella pneumoniae KL2; assay: MIC by standard agar dilution test; assay type: cell-based; conditions: KL2, Table 1, agar dilution, read-out: Minimum Inhibitory Concentration
[14] = test system: Enterobacter aerogenes EB17; assay: MIC by standard agar dilution test; assay type: cell-based; conditions: Klebsiella aerogenes, EB17; Table II; agar dilution; read-out: Minimum Inhibitory Concentration
Proteus morganii PR15 = assay: MIC by standard agar dilution test; assay type: cell-based; conditions: Morganella morganii, PR15, read-out: Minimum Inhibitory Concentration
[15] = test system: Klebsiella pneumoniae KL14; assay: MIC by standard agar dilution test; assay type: cell-based; conditions: KL14, Table II, agar dilution, read-out: Minimum Inhibitory Concentration
[16] = test system: Staphylococcus aureus 3055; assay: MIC by standard agar dilution test; assay type: cell-based; conditions: Staphylococcus aureus, 3055, read-out: Minimum Inhibitory Concentration
Erwinia amylovora = assay: MIC by standard agar dilution test; assay type: cell-based; conditions: Table II, read-out: Minimum Inhibitory Concentration
From the text: (§1) The antibacterial activity of the antibiotic compounds of this invention is illustrated by the following in vitro and in vivo test data obtained with representative compounds. In Tables I and II the minimum inhibitory concentration (MIC) for representative compounds against a wide range of gram-positive and gram-negative bacteria is presented. The MIC values were obtained by the standard agar dilution test.

[17] = test system: Staphylococcus aureus 3074; assay: MIC by standard agar dilution test; assay type: cell-based; conditions: Table II, read-out: Minimum Inhibitory Concentration
From the text: as §1

[18] = test system: Streptococcus faecalis X66; assay: MIC by standard agar dilution test; assay type: cell-based; conditions: Enterococcus faecalis, X66, read-out: Minimum Inhibitory Concentration
Salmonella typhosa SA12 = assay: MIC by standard agar dilution test; assay type: cell-based; conditions: Salmonella enterica, read-out: Minimum Inhibitory Concentration
Escherichia coli EC14 = assay: MIC by standard agar dilution test; assay type: cell-based; conditions: EC14, read-out: Minimum Inhibitory Concentration
[19] = test system: Citrobacter freundii CF17; assay: MIC by standard agar dilution test; assay type: cell-based; conditions: CF17, Table II, agar dilution, read-out: Minimum Inhibitory Concentration
[20] = test system: Bordetella bronchiseptica 16; assay: MIC by standard agar dilution test; assay type: cell-based; conditions: Bordetella bronchiseptica, 16, read-out: Minimum Inhibitory Concentration
Salmonella typhimurium = assay: MIC by standard agar dilution test; assay type: cell-based; conditions: Salmonella enterica, Table II, agar dilution, read-out: Minimum Inhibitory Concentration
[21] = test system: Pseudomonas solanacearum X185; assay: microbe, parasite or virus in culture; assay type: cell-based; conditions: Ralstonia solanacearum, X185, read-out: Minimum Inhibitory Concentration
[22] = test system: Pseudomonas aeruginosa X239; assay: Subcutaneous therapy of Pseudomonas aeruginosa X239 infections in mice; assay type: in vivo; conditions: X239, sc, 2 subcutaneous doses at 1 and 5 hours post infection, dose to protect 50 percent of test animals, read-out: Effective Dose (ED50)
Procedure: Table III illustrates the effective dose (ED50, effective dose to protect 50 percent of the test animals) for representative compounds of this invention against an experimental bacterial infection in mice. | *mg/kg × 2 subcutaneous doses at 1 and 5 hours post infections The ED50 values were determined as described by W. E. Wick et al., Journal of Bacteriolocy, 81 [No. 2], 233-235 (1961).

Which MIC [1] does the source give for `CN[C@@H]1[C@@H](O[C@H]2O[C@H](CN)[C@@H](N)[C@H](O)[C@H]2O)O[C@H]2C[C@@H](N)[C@@H](O[C@H]3[C@H](O)[C@@H](O)[C@H](N)C[C@@H]3N)O[C@@H]2[C@@H]1O` [Test Compound 5, 6"-Amino-6"-Deoxyapramycin] here?
Its MIC is 32 µg/mL (≈ 59.4 µM).

What about the MIC [2] of the same compound?
Its MIC is 64 µg/mL (≈ 119 µM).

And the MIC [3]?
Its MIC is 32 µg/mL (≈ 59.4 µM).

And the MIC [4]?
Its MIC is 128 µg/mL (≈ 238 µM).

What about the MIC [5] of the same compound?
Its MIC is 32 µg/mL (≈ 59.4 µM).

And the MIC [6]?
The MIC was 32 µg/mL (≈ 59.4 µM).

And the MIC [7]?
Its MIC is 64 µg/mL (≈ 119 µM).

And the MIC [8]?
The MIC was greater than 128 µg/mL.

What about the MIC [9] of the same compound?
Its MIC is 32 µg/mL (≈ 59.4 µM).

And the MIC (Serratia marcescens SE2)?
Its MIC is 8 µg/mL (≈ 14.9 µM).

What about the MIC (Serratia marcescens X99) of the same compound?
The MIC was 8 µg/mL (≈ 14.9 µM).

And the MIC (Serratia marcescens SE3; SE3, Table 1, read-out: Minimum Inhibitory Concentration)?
The MIC was 8 µg/mL (≈ 14.9 µM).

What about the MIC (Serratia marcescens SE3; SE3, read-out: Minimum Inhibitory Concentration, Table II) of the same compound?
Its MIC is 16 µg/mL (≈ 29.7 µM).

And the MIC [10]?
The MIC was 16 µg/mL (≈ 29.7 µM).

And the MIC [11]?
The MIC was 8 µg/mL (≈ 14.9 µM).

What about the MIC [12] of the same compound?
The MIC was 8 µg/mL (≈ 14.9 µM).

What about the MIC (Proteus morganii PR1) of the same compound?
The MIC was 16 µg/mL (≈ 29.7 µM).

What about the MIC (Proteus morganii PR2) of the same compound?
Its MIC is 8 µg/mL (≈ 14.9 µM).

What about the MIC (Proteus inconstans PV25) of the same compound?
Its MIC is 8 µg/mL (≈ 14.9 µM).

And the MIC [13]?
Its MIC is 8 µg/mL (≈ 14.9 µM).

What about the MIC [14] of the same compound?
Its MIC is 8 µg/mL (≈ 14.9 µM).

And the MIC (Proteus morganii PR15)?
Its MIC is 32 µg/mL (≈ 59.4 µM).

And the MIC [15]?
The MIC was 8 µg/mL (≈ 14.9 µM).

And the MIC [16]?
The MIC was 1 µg/mL (≈ 1.86 µM).

And the MIC (Erwinia amylovora)?
The MIC was 4 µg/mL (≈ 7.43 µM).

And the MIC [17]?
The MIC was 4 µg/mL (≈ 7.43 µM).

And the MIC [18]?
Its MIC is 32 µg/mL (≈ 59.4 µM).

And the MIC (Salmonella typhosa SA12)?
Its MIC is 16 µg/mL (≈ 29.7 µM).

And the MIC (Escherichia coli EC14)?
The MIC was 16 µg/mL (≈ 29.7 µM).

What about the MIC [19] of the same compound?
Its MIC is 8 µg/mL (≈ 14.9 µM).

And the MIC [20]?
The MIC was 32 µg/mL (≈ 59.4 µM).

And the MIC (Salmonella typhimurium)?
Its MIC is 8 µg/mL (≈ 14.9 µM).

What about the MIC [21] of the same compound?
Its MIC is 4 µg/mL (≈ 7.43 µM).

What about the ED50 [22] of the same compound?
The ED50 was 15 mg/kg.
